# Data: patent US9963482B2, “Phosphatidylinositol-3-kinase inhibitor and pharmaceutical composition” (Tohoku University, priority 2011, dated 2018)
# Like-named read-outs stand apart in the source and are kept apart here.
# Experiments:
# HDAC6 = biological target: T1, HDAC6 (Homo sapiens, UniProt Q9UBN7); conditions: Table 2; cited from earlier work
# T1 sequence (Q9UBN7 1-1215): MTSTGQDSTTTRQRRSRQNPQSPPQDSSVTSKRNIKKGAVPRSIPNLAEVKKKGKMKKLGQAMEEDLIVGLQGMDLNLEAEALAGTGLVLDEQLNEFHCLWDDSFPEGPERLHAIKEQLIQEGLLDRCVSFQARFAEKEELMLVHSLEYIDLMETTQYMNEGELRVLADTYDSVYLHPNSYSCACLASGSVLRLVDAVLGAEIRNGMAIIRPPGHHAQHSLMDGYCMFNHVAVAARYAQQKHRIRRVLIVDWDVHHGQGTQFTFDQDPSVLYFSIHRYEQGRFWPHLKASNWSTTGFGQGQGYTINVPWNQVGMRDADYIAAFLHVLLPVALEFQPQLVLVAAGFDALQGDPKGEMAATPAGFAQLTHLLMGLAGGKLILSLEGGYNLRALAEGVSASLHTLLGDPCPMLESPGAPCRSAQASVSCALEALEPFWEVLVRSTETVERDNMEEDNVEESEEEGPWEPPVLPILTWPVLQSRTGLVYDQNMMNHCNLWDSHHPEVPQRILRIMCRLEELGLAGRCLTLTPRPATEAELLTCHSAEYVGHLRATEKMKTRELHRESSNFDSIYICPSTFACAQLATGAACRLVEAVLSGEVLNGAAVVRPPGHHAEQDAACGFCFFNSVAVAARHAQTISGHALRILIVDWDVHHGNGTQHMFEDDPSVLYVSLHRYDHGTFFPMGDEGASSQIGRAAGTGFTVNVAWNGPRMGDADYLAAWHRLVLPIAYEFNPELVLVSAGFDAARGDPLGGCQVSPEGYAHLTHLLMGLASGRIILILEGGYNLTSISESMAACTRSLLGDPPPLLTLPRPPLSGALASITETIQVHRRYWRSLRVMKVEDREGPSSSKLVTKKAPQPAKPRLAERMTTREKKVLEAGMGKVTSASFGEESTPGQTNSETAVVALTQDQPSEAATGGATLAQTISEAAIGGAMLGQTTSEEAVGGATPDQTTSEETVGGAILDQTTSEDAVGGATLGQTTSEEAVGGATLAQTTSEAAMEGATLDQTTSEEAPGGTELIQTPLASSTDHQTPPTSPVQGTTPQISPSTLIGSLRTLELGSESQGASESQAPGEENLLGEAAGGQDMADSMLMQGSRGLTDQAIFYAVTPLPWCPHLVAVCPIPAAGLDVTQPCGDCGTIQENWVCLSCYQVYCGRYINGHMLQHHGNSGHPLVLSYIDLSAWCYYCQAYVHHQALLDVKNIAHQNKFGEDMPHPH
# HCT116 cells [1] = assay: Cytotoxic effect by MTT assay, HCT116; format: cell-based, human; conditions: HCT116, 24 hours
# Protocol: (§1) The human culture cells used were colon cancer cell lines (HCT116, CO115, and RKO). HCT116 and RKO were obtained from American Type Culture Collection (ATCC). CO115 was obtained from John M. Mariadason (Ludwig Institute for Cancer Research, Melbourne, Australia). The cells were cultured at 37° C. in the presence of 5% CO2 by using RPMI1640 medium containing inactivated fetal bovine serum at the concentration of 10%.
# (§2) After 24 hours, the number of live cells was determined by using “Cell counting kit-8” (trade name, manufactured by DOJINDO CO., LTD). […] The amount of formazan dye and the number of live cells are in proportional relationship, and by measuring the absorbance of formazan at 450 nm using a microplate reader (trade name: “SpectraMax M2e”, manufactured by Molecular Devices), the number of live cells was counted.
# [2] = test system: AKT pathway in PC3 (prostate cancer) cells; assay: AKT pathway inhibition by Western blotting in PC3 cells; format: cell-based, human
# Protocol: PC3 cells were obtained from Cell Resource Center for Medical Research of Institute of Development, Aging, and Cancer, Tohoku University. The cells were cultured at 37° C. in the presence of 5% CO2 by using RPMI1640 medium containing inactivated fetal bovine serum at the concentration of 10%.
# Western blotting was performed as follows. Various kinds of the cells treated with each compound were collected and lysed in a lysis buffer (500 mM Tris-HCl pH 7.5, 100 mM NaCl, 2 mM EDTA, 1 mM sodium orthovanadate, 1% NP-40, and 1% protease inhibitor cocktail, manufactured by SIGMA-ALDRICH). After centrifugation, the supernatants were collected.
# The followings were used as primary antibodies.
# As a secondary antibody, “Alexa Fluor680IgG” (trade name, manufactured by Invitrogen) was used. By using “Odyssey Infrared Imaging System” (trade name, manufactured by LI-COR), expression of the protein of interest was determined.
# PI3K (p110α/p85α) = biological target: T2, PI3K (p110α/p85α) (Homo sapiens, UniProt P42336); assay: In vitro PI3K inhibitory activity by mobility shift assay (Carna Biosciences); format: biochemical
# T2 construct: purchased Carna Biosciences, Inc. (Kobe); contract measurement
# T2 sequence (P42336 whole entry): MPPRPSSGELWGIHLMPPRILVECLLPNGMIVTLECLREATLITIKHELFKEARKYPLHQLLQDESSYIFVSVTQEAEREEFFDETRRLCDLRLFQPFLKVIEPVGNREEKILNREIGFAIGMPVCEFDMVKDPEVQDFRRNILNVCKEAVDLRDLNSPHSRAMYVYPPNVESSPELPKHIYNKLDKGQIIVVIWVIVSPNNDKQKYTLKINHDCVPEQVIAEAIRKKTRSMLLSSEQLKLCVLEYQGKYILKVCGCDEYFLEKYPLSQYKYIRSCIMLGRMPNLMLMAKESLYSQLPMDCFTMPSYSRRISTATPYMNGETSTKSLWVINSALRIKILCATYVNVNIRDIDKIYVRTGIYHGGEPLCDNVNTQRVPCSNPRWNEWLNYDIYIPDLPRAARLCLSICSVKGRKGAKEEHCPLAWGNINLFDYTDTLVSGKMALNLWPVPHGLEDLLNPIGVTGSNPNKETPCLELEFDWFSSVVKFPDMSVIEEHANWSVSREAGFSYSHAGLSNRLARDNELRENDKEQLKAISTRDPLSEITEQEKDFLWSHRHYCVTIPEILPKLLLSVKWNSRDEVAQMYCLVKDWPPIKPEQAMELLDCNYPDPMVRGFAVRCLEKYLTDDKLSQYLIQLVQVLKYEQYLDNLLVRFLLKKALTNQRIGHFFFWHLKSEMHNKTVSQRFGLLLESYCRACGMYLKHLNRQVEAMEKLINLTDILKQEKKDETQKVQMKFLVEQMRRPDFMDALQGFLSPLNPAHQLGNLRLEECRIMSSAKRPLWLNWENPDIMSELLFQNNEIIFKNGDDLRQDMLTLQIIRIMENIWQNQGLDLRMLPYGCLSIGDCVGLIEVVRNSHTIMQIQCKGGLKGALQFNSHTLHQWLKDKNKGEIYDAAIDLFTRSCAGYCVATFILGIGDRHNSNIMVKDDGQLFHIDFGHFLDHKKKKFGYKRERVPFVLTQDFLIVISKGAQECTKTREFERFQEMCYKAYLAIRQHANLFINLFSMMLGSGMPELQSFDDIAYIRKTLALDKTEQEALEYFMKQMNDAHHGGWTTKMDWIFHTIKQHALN
# T2 sequence (P27986 whole entry partner): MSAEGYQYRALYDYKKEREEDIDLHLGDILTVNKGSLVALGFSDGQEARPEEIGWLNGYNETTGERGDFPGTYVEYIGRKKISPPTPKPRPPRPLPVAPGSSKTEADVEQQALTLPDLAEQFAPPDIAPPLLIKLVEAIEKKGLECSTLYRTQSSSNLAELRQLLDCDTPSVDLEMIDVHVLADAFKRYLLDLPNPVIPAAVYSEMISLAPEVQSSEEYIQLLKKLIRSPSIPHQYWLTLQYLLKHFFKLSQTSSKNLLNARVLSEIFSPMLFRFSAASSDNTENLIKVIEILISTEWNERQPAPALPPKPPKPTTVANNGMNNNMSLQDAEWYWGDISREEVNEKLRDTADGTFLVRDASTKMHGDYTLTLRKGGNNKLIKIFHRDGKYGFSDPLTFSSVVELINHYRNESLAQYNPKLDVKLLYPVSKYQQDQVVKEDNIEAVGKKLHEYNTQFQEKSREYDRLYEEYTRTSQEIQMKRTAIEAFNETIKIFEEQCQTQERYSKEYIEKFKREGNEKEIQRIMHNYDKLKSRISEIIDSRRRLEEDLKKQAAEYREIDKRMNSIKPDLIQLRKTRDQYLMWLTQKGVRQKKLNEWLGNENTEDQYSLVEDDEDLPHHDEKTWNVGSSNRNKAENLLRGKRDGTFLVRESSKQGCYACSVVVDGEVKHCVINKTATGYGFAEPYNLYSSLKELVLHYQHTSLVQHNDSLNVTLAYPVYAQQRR
# Protocol: The PI3K (p110α/p85α) inhibitory activity was evaluated at Carna Biosciences, Inc. (Kobe) by mobility shift assay which included isolation and quantification of a substrate and the phosphorylated substrate based on the mobility in a capillary (https://www.carnabio.com/japanese/product/search.cgi?mode=profiling). […] After allowing the reaction to occur for 5 hours at room temperature, the mobility shift assay was performed. The test was performed in duplicate.
# Inhibition rate was calculated as follows.
# The value of product/substrate+product when an agent was added thereto was calculated similarly, and the inhibition rate was calculated based on a difference from the control value.
# HDAC1 = HDAC1 (Homo sapiens, UniProt Q13547); conditions: cited from earlier work
# Chain of HDAC1 (Q13547 whole entry, species assumed): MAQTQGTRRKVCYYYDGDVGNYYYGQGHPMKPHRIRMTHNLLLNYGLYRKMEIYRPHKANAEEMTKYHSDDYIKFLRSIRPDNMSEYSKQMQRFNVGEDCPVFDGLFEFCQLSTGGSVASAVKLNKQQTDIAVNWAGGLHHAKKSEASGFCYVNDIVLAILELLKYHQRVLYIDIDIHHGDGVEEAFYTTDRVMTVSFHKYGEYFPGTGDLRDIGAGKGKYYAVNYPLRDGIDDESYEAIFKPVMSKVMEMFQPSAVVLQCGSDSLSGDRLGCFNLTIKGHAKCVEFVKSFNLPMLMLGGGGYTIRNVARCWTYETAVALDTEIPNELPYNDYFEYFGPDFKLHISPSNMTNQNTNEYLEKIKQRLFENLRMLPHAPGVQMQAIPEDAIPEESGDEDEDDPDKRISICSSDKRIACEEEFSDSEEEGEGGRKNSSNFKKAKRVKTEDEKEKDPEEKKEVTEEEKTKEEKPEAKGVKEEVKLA
# HCT116 cells [3] = assay: FACS cell cycle analysis in HCT116 cells; format: cell-based, human; conditions: HCT116, 24 hours; SAHA 2.5 μM, LY294002 50 μM, FK228 or FK-A5 at low concentration
# Protocol: The cells were collected, fixed with ethanol, stained with iodopropidium/PBS solution, and analyzed by using “Cytomics FC500 Flow Cytometry System” (trade name, manufactured by Beckman Coulter). The cell cycle fractions were calculated by using “Multicycle software” (trade name, manufactured by Phenomix Flow Systems).
# [4] = biological target: T3, human p110α expressed in budding yeast (Homo sapiens, UniProt P42336); assay: Screening of PI3K inhibitor using budding yeast (recovery from cell proliferation disorder caused by p110α); format: cell-based; conditions: AD1-9 transformant expressing p110α, compound 5 μM, 24 hours, average of three tests
# T3 construct: expressed in transfected cells; host or cells: Saccharomyces cerevisiae AD1-9 (LEU2-disrupted), galactose-induced
# T3 sequence (P42336 whole entry): as the sequence (P42336 whole entry) above
# Protocol: AD1-9 strain can be obtained from Nader Nourizad (Stanford Genome Technology Center Stanford University, CA, USA).
# The transformed AD 1-9 strain was cultured at 30° C. in a minimal complete medium SC-U-L containing no uracil and leucine or SGal-U-L in which 2% glucose was replaced with 2% galactose.
# By using the aforementioned system, screening of the compound library, which was obtained from the Screening committee of anticancer drugs supported by grant-in-aid for scientific research on priority area “Cancer” from Ministry of Education, Culture, Sports, Science, and Technology, Japan, was performed. Each compound was added to SGal-U-L liquid medium to constitute a concentration of 0.5 μM or 5 μM and the transformant of AD 1-9 was cultured for 24 hours under shaking. Thereafter, A600 was measured. […] Three independent tests were repeatedly performed to calculate the average value of A600.
# RKO cells = assay: Cytotoxic effect by MTT assay, RKO; format: cell-based, human; conditions: 24 hours
# Protocol: as §1, §2
# CO115 cells = assay: Cytotoxic effect by MTT assay, CO115; format: cell-based, human; conditions: CO115, 24 hours
# Protocol: as §1, §2
smiles,measurement,setting,value
CC(C)[C@H]1NC(=O)CC2/C=C/CCSSCC(NC1=O)C(=O)N[C@H](Cc1ccccc1)C(=O)NCC(=O)O2 (stereo in doubt) [FK-A5],IC50,HDAC6,1600 nM
same,number of cells at high concentration,HCT116 cells [1]; μM levels,very significantly reduced the number of cells
same,"expression level of phosphorylated AKT (Ser-473, Thr-308) over time","[2]; 10 μM, 5 to 180 minutes","lowered the expression level of phosphorylated AKT (Ser-473, Thr-308)"
same,phosphorylated ERK1/2,[2]; 180 minutes,slightly inhibited
same,phosphorylated MEK1/2,[2]; 180 minutes,not inhibited
same,"expression levels of phosphorylated AKT, GSK-3β, mTOR, p70S6K and 4E-BP1","[2]; 180 minutes, varying concentration",inhibited in a concentration dependent manner
same,IC50,"PI3K (p110α/p85α); 50 μM ATP, read-out: IC50 for PI3K",26200 nM
same,IC50,"PI3K (p110α/p85α); Table 3, PI3K (p110α/p85α), read-out: PI3K IC50",27300 nM
same,PI3K activity inhibitory rate,"PI3K (p110α/p85α); compound 20 μM, 50 μM ATP",higher inhibition rate than FK228
same,inhibition at 20 µM,"PI3K (p110α/p85α); compound 20 μM, 50 μM ATP, read-out: PI3K activity inhibitory rate",66.8%
same,IC50,HDAC1; Table 2,2.5 nM
same,IC50,HDAC1; Table 3,2.5 nM
same,cell cycle arrest,HCT116 cells [3],"induced cell cycle arrest, predominantly at G2/M phase"
same,A600,[4],0.449
same,number of cells at high concentration,RKO cells; μM levels,very significantly reduced the number of cells
same,number of cells at high concentration,CO115 cells; μM levels,very significantly reduced the number of cells
CC(C)[C@H]1NC(=O)CC2/C=C/CCSSCC(NC1=O)C(=O)N[C@H](Cc1cccc3ccccc13)C(=O)NCC(=O)O2 (stereo partly drawn) [FK-A11],cell death,HCT116 cells [1]; 5 nM to 500 nM,significant cell death
same,inhibition of AKT phosphorylation compared with FK-A5 and FK228,[2]; 180 minutes,occurred at a lower concentration than FK-A5 and FK228
same,cell death,RKO cells; 5 nM to 500 nM,significant cell death
same,cell death,CO115 cells; from 500 nM,strong cell death
same,cell death,CO115 cells; up to 50 nM,resistant
